Source: US20260242340A1, “COMPOUNDS AND METHODS FOR TREATING PROTEIN AGGREGATION DISEASES” (ACELOT, INC., priority 2023, published 2026)

Assays:
Aβ 1-42 = target: T1, Aβ 1-42 (Homo sapiens, UniProt P05067); assay: Aβ42 thioflavin T assay; assay type: biochemical; settings: 50 μM compound, 5 μM Aβ 1-42, ThT RFU at 15 hours; 100% = Aβ + DMSO; read-out: Aβ42 % aggregation at 50 μM
T1 construct: The monomeric form of Aβ 1-42 (rPeptide, A1170-025) film; purchased rPeptide A1170-025
Experimental: The effect of compounds on fibril formation by Aβ 1-42 was screened using a thioflavin T (ThT) fluorescence assay in a 96-well plate format. The monomeric form of Aβ 1-42 (rPeptide, A1170-025) film was diluted with 10 mM NaOH to form a 1 mg/ml stock solution. This stock solution was then further diluted with cell culture grade water (Cytiva, SH30529.01) and 10×PBS (VWR, 97063-660) to a working concentration of 100 μM in 1×PBS on ice. Compounds were initially dissolved in 100% DMSO (MilliporeSigma, D2650) at room temperature to make a 10 mM stock and stored at −20° C. prior to the experiment. On the day of the experiment, the stock solution was diluted with 1×PBS to a concentration of 500 μM, containing 5% DMSO. The reaction mixture, containing 10 μM ThT […], 5 μM Aβ 1-42, and 1×PBS was prepared in 15 ml Falcon centrifuge tubes (Corning, 352070) and kept on ice during preparation. The reaction mixture was then dispensed into multiple wells of a 96-well half-area, low-binding polyethylene non-treated plate (Corning, 3880) with a clear bottom, at 90 μL per well. To each well, 10 μL of 500 μM compound stock was added, with three replicates per compound. To account for the presence of DMSO, 5% DMSO in 1×PBS was used as the vehicle control. The positive control consisted of 10 μM ThT, 5 μM Aβ 1-42, and 0.5% DMSO in 1×PBS, while the negative control consisted of 10 μM ThT and 0.5% DMSO in 1×PBS. The plates were sealed with polyester sealing tape (VWR, 89134-430) to prevent evaporation and then placed in a plate reader (Molecular Devices SpectraMax ID5) at 37° C. without agitation. ThT fluorescence was measured through the bottom of the plate using 440- and 480-nm excitation and emission filters for 15 hours at 0.5-hour intervals. Each well was scanned at 5 points with a 1.25 mm distance between points. The relative fluorescence unit (RFU) at 15 hours was used to rank the percent of aggregation for all tested compounds and controls.

[1] = target: TDP-43 peptide (amino acids 307-319) (Homo sapiens, UniProt Q13148); assay: TDP-43 thioflavin T assay; assay type: biochemical; settings: ThT RFU at 15 hours; 100% = TDP-43 + DMSO
Experimental: The effect of compounds on fibril formation by TDP-43 peptide (amino acids 307-319) was screened using a thioflavin T (ThT) fluorescence assay in a 96-well plate format. The monomeric form of TDP-43 307-319 was stored in HFIP at −20° C. in 32 μL vials and then thawed on ice. After thawing a stock aliquot on ice, 16 μL of HFIP and 432 μL 100 mM ammonium acetate was added. This mix was pipetted three times. Three such prepared aliquots were combined to create a master mix. 400 μM of ThT stock was prepared by dissolving 31.8 mg ThT in 10 mL Milli-Q water to make […] stock. The 10 mM ThT stock was then diluted to 400 μM with Milli-Q water and stored at −20° C. until use. 20 μL aliquots of compounds were used as initial starting material. 98 μL of master mix was then added to each well of 96-well plate, and then 2 μL of compounds was added to each well testing a compound. The plate was spun at 4700×rpm to remove bubbles at 4° C., and then the plate measurements were collected. ThT fluorescence was measured through the bottom of the plate using 440- and 480-nm excitation and emission filters for 15 hours at 0.5-hour intervals. Each well was scanned at 5 points with a 1.25 mm distance between points. The relative fluorescence unit (RFU) at 15 hours was used to rank the percent of aggregation for all tested compounds.

[2] = target: T2, TDP-43 cytosolic aggregates (TDP-43-tGFP-U2OS cell line) (Homo sapiens, UniProt Q13148); assay: TDP-43 cytoplasmic aggregation assay; assay type: cell-based; settings: 100 μM compound; TDP-43-tGFP-U2OS cells; lower = more potent
T2 construct: expressed in transfected cells; host or cells: U2OS (recombinant, IPTG-inducible TDP-43 expression)
T2 sequence (Q13148 whole entry): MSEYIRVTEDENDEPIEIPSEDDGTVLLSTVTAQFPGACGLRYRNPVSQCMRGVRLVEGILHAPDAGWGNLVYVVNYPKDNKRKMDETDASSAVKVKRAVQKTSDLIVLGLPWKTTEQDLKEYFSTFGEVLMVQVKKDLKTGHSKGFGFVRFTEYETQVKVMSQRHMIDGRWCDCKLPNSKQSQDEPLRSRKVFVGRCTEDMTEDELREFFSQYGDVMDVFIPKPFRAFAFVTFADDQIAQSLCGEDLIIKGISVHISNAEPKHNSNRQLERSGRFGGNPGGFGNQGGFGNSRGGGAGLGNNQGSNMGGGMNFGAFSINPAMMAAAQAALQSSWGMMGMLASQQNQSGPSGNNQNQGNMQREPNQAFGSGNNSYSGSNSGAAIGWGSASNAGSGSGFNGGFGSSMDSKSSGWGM
Experimental: Recombinant TDP-43-tGFP-U2OS cell line was thawed (2×10^6 cells per T75) and was maintained in DMEM-F12 supplemented with 10% FBS at 37° C. in a humidified 5% CO2 atmosphere. Cells were plated in 96-well plates with a density of 10,000 cells (+/−2000 cells) per well. Cells were incubated with the test compounds and isopropyl β-D-1-thiogalactopyranoside (IPTG) 1 mM to induce TDP43 expression for 24 hours. The assays were carried out in triplicate. Cells were treated with 125-250 μM of sodium arsenite for 120 min and TDP-43 punctae formation was quantified in both cell cytoplasm and cell nucleus, in living cells. The nuclei were stained using Hoechst (0.5 μg/ml) and the fluorescence was measured using a Cell Insight High-Content Bioimager from Thermo Fisher. To detect the Hoechst, the filters used were 380/10 and 460/10 nm for excitation and emission, respectively, and to detect the TDP-43 punctae, the filters were 488/20 and 520/20 nm, respectively. The images were obtained with an objective of 20×. Cell quantification was performed delimitating the region of interest of the nuclei and after quantification the average of each triplicate was performed. For granule quantification the spot detector application from Cell Software delimitated 2 regions of interest, the nuclei and cytosol. This software quantified the average number of granules per nuclei and the average number of granules per cytosol in each well.

alpha-synuclein = target: T3, alpha-synuclein (Homo sapiens, UniProt P37840); assay: Alpha-synuclein thioflavin T assay; assay type: biochemical; settings: 250 μM compound on pre-formed aggregates of 50 μM alpha-synuclein, 24 hours; 100% = alpha synuclein + DMSO
T3 construct: purchased Proteos RP-003
Experimental: Recombinant alpha-synuclein monomeric protein was procured from Proteos (catalog no. RP-003, 10 mg/ml or 700 μM concentration). Prior to aggregation, the protein was centrifuged at 10,000 rpm for 5 minutes to remove any pre-existing aggregates. The stock solution was then diluted to 50 μM concentration in filtered 1×PBS and allowed to aggregate with continuous shaking at 1000 rpm on a thermomixer for 96 hours at 37° C. After 96 hours, the ThT fluorescence was checked for the sample to confirm aggregate formation using ThT, a well-known amyloid marker dye. The ThT active aggregates were then used for high-throughput small molecule inhibitor screening. For screening small molecule disaggregators, 10 mM DMSO stock solutions of small molecules were diluted to 250 μM in the reaction mix containing 20 μM ThT and aggregates formed by 50 μM alpha-synuclein. As a positive/vehicle control, 100% DMSO stock was diluted to 2.5% to match the DMSO in the small molecule conditions. ThT fluorescence assay was performed for 24 hours with 3 replicates per sample in a 384 well plate (Corning low volume black/clear flat bottom) on a microplate reader (Molecular Devices SpectraMax iD5 or BioTek Agilent Synergy Neo2) using excitation wavelength of 440 nm and emission wavelength of 490 nm. The temperature was maintained at 37° C. and the plate was continuously shaken throughout the measurement. All data were plotted and analyzed in GraphPad Prism.

T1 sequence (P05067 672-713 limits assumed): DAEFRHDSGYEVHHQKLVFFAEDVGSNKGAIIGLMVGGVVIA

Row | activity at 50 µM (Aβ 1-42) | % aggregation TDP-43 ThT at 50 μM TDP-43 [1] | % remaining TDP-43 cytosolic aggregates after 100 μM compound addition [2] | % alpha synuclein aggregation as measured on ThT (alpha-synuclein) | Compound
1 | 59.7% | 73.1% | 93.7% | >99.9% | CC(=O)Nc1ccc2c(c1)CN(CCc1cccc(Cl)c1)CC2 [Compound 6, N-(2-(3-Chlorophenethyl)-1,2,3,4-tetrahydroisoquinolin-7-yl) acetamide]
2 |  | 43.5% |  |  | CC(=O)Nc1ccc2c(c1)CN(CCc1ccc(O)c(Cl)c1)C2 [Compound 12, N-(2-(3-Chloro-4-hydroxyphenethyl)isoindolin-5-yl) acetamide]
3 |  | 48.8% |  |  | CC(=O)Nc1ccc2c(c1)CN(CCc1ccc(O)c(C)c1)C2 [Compound 13, N-(2-(4-Hydroxy-3-methylphenethyl)isoindolin-5-yl) acetamide]
4 |  | 48.6% |  |  | CCc1cc(CCN2Cc3ccc(NC(C)=O)cc3C2)ccc1O [Compound 14, N-(2-(3-Ethyl-4-hydroxyphenethyl)isoindolin-5-yl) acetamide]

The remaining lines, values behind:

Row | Compound | activity at 50 µM (Aβ 1-42) | % aggregation TDP-43 ThT at 50 μM TDP-43 [1] | % remaining TDP-43 cytosolic aggregates after 100 μM compound addition [2] | % alpha synuclein aggregation as measured on ThT (alpha-synuclein)
5 | CC(=O)Nc1ccc2c(c1)CCN(CCc1ccccc1)C2 [Compound 3, N-(2-Phenethyl-1,2,3,4-tetrahydroisoquinolin-6-yl) acetamide] | > 99.9% | 78.9% | >99.9% | 82.8%
6 | CNC(=O)c1ccc2c(c1)CCN(CCc1cccc(Cl)c1)C2 [Compound 4, 2-(3-chlorophenethyl)-N-methyl-1.2.3.4-tetrahydroisoquinoline-6-carboxamide] | 74.6% |  | 59.1% | >99.9%
7 | Clc1cccc(CCN2CCc3ccccc3C2)c1 [Compound 5, 2-(3-chlorophenethyl)-1,2,3,4-tetrahydroisoquinoline] |  | 64.6% | 40.7% | 99%
8 | CC(=O)N(C)c1ccc2c(c1)CN(CCc1ccc(O)c(Cl)c1)C2.Cl [Compound 15, N-(2-(3-Chloro-4-hydroxyphenethyl)isoindolin-5-yl)-N-methylacetamide hydrochloride] |  | 47.2% |  | 
